Measurements as given in patent US20230141863A1, “Small Molecule Inhibitors Targeting the Sodium Channel Tamoxifen Receptor and Uses Thereof” (Northwestern University, priority 2021, published 2023).
Entries after “also recorded” stand apart in the source; their conditions may differ. Where two headings read alike, the source gives them in different places.

How the values were obtained:
[1] = target: Nav1.7 DII S969A and DIV D1761A (Homo sapiens, UniProt Q15858); assay: Voltage clamp of Nav1.7 with alanine substitutions in DII and DIV; type: cell-based; conditions: range over DII S969A and DIV D1761A
Nav1.7 DII S969A and DIV D1761A, sequence (Q15858 whole entry S969A, form open): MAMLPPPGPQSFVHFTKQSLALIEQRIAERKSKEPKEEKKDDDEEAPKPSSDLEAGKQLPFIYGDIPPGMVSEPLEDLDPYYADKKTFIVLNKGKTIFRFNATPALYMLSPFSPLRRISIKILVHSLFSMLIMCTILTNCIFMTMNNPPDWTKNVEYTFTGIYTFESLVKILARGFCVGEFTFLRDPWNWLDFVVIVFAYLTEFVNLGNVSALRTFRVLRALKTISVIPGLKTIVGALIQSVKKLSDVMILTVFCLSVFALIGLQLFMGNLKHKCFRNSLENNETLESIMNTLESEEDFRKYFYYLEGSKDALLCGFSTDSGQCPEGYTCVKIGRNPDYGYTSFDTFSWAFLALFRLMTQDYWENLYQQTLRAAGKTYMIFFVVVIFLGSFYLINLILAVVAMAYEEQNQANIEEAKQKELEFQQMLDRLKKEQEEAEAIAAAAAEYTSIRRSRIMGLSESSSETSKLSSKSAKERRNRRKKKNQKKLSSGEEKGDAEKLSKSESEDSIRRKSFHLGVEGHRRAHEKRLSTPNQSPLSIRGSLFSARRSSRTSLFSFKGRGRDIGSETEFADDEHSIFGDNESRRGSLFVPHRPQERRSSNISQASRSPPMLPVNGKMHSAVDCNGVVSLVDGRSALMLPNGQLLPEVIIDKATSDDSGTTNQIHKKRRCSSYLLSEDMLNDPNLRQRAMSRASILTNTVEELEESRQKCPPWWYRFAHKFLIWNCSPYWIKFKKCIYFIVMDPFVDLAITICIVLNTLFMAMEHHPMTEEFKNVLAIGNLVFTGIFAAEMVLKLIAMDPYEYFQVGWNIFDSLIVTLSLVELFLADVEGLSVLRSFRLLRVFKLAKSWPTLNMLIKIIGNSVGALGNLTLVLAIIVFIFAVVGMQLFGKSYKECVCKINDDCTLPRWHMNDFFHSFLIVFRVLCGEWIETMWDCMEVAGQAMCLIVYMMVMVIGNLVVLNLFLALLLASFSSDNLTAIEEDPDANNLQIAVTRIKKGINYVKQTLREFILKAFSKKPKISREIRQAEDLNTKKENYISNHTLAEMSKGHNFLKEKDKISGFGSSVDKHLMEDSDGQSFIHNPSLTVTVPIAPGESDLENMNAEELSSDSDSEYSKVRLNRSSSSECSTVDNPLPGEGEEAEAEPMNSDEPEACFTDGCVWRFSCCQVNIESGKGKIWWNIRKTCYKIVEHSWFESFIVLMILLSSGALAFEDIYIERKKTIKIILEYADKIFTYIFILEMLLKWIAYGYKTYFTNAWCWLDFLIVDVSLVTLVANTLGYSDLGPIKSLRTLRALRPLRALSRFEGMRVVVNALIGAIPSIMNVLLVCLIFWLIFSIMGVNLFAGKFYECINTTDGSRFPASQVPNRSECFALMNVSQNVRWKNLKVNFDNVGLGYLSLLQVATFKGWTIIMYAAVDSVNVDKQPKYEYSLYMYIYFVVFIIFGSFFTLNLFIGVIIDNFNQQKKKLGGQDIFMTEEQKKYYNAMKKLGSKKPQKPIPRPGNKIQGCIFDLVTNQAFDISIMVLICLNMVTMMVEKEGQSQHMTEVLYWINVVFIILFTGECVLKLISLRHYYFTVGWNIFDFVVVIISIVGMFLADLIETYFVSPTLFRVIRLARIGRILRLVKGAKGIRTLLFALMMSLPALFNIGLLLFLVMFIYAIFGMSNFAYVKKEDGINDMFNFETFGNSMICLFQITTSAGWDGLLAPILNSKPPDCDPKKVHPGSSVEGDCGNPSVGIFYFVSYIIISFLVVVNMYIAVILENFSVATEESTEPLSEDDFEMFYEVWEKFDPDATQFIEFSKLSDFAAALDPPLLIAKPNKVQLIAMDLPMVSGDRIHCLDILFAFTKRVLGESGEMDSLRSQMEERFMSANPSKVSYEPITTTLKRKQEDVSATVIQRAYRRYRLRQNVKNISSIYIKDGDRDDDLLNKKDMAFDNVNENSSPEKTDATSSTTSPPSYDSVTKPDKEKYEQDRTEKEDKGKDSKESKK
Procedure: (§1) While no clear drug-receptor interactions were determined within Siteout, the S6 E220 side chains formed hydrogen bond interactions with the ether and amine moieties of the ND-Tam molecules found at Sitein. […] After structural alignment of the crystalized NavMs-Tam complex with the cryo EM Nav1.7+b1+b2 channel coordinates, the S6 side chain hydroxyl in DII (S969) and the carboxyl side chains in DIII (E1458) and DIV (D1761) observed in the human channel were nearly superimposable with E220 of the prokaryotic Nav subunits. In addition, the distances from the drug ether and amines were within acceptable distances (2.8-3.1 Å) for hydrogen bond formation for all three site chains (FIG. 2B). […]
(§2) Plasmids encoding the human version of channels Nav1.1, 1.6, and 1.7 were co-transfected with TRES GFP into HEK cell lines for whole-cell voltage clamp studies (American Type Culture Collection). […] Plasma membrane currents were recorded using borosilicate glass electrodes polished to resistances of […]. Sodium currents conducted by heterologously expressed Navs were recorded using the following solutions (in mM). […] Endogenous DRG sodium currents were recorded using an intracellular solution consisting of 70 CsCl, 70 CsF, 2 EGTA, 5 HEPES, and 5 NaCl; the pH was adjusted to 7.4 with CsOH. […]

[2] = test system: mice with knee hyperalgesia post DMM surgery; assay: In vivo osteoarthritis pain model (DMM), knee hyperalgesia after intra-articular injection; design: species or system mouse
[3] = test system: T1, endogenous voltage-gated sodium channels expressed in murine DRG neurons; assay: Whole cell voltage clamp of endogenous sodium currents (INa) in cultured DRG sensory neurons; type: cell-based, mouse; conditions: −60 mV holding potential, read-out: ND-Tam potency against DRG INa (IC50)
T1 construct: other: waiting for 5 minutes after removal; ND-Tam potency against DRG INa (IC50); other: DRG neurons, −60 mV holding potential; other: 3 μM ND-Tam treatment; other: DR

[4] = test system: T2, endogenous voltage-gated sodium channels expressed in murine DRG neurons; assay: as above; type: cell-based, mouse; conditions: −40 mV holding potential, read-out: ND-Tam potency against DRG INa (IC50)
T2 construct: other: DRG neurons, −40 mV holding potential

human Nav1.7 = target: T3, human Nav1.7 (Homo sapiens, UniProt Q15858); assay: Voltage clamp of heterologously expressed Nav1.7; type: cell-based; conditions: Hill fit, printed for ND-Tam and 4OH-Tam together
T3 construct: expressed in transfected cells; host or cells: HEK cells, transient transfection with lipofectamine
T3 sequence (Q15858 whole entry): as the sequence (Q15858 whole entry S969A, form open) above, with A969S counted along it
Procedure: as §1, §2

[5] = target: T4, Nav1.7 D1458A in domain III (Homo sapiens, UniProt Q15858, D1458A); assay: Voltage clamp of Nav1.7 with alanine substitution in domain III; type: cell-based
T4 construct: expressed in transfected cells
T4 sequence (Q15858 whole entry D1458A, the tested form may be a part): as the sequence (Q15858 whole entry S969A, form open) above, with A969S, D1458A counted along it
Procedure: as §1, §2

Question: Which results are given for `CC/C(=C(\c1ccccc1)c1ccc(OCCNC)cc1)c1ccccc1` [ND-Tam, 2-[4-[(Z)-1,2-diphenylbut-1-enyl]phenoxy]-N-methylethanamine]?
Answer: slope of concentration-dependence [1]: 1.3-1.4; knee hyperalgesia versus vehicle (in words) ([2]; 50 μM (~0.002 mg/kg) intra-articular, vehicle 50% EtOH, 30 minutes after injection, P=0.008): rapidly inhibited knee hyperalgesia pain compared to injection of vehicle; also recorded: provided relief from hyperalgesia compared to vehicle; area under the curve analysis of withdrawal thresholds (in words) ([2]; 50 μM intra-articular, 0-3 hours after injection): performs similar to CBD and to lidocaine over time; knee hyperalgesia versus vehicle, direct comparison study (in words) ([2]; 50 μM intra-articular, vehicle 0.1% DMSO, 30 minutes after injection): effectively inhibited knee hyperalgesia; knee withdrawal threshold versus vehicle control (in words) ([2]; 50 μM intra-articular, vehicle 0.1% DMSO, through 3 hours after injection): remained elevated compared to vehicle control through 3 hours after injection; IC50 [3]: 0.112 µM; IC50 [4]: 0.0039 µM; slope of concentration-dependence (human Nav1.7): 2.1; slope of concentration-dependence [5]: 2.2
